Data as given in patent EP1267867B1, “USE OF PROSTANOID EP4 RECEPTOR ANTAGONISTS FOR THE TREATMENT OF HEADACHE AND ASSAYS FOR SUCH ANTAGONISTS” (ASTERAND UK LIMITED, priority 2000, dated 2001).

Experiments:
[1] = system: human cerebral artery rings; experiment: Prostanoid agonist effects on isolated human cerebral artery rings (organ bath, isometric tension); format: cell-based; details: for effect on human cerebral artery rings contracted with phenylephrine: smaller diameter vessels, phenylephrine (1 µM), GR32191 (1 µM) present to block TP-receptors, Figures 3-5
Experimental: (§1) Sections of cerebral artery were removed from different regions of preparations of human cerebral vasculature containing an intact circle of Willis. Intact rings of this cerebral artery, 2-3mm in length, were set up under isometric conditions in 10 ml organ baths under an initial tension of 1g. All tissues were maintained at 37°C and gassed constantly with 95% O2 / 5% CO2. Following a 90 min equilibration period all tissues were challenged with phenylephrine (1 µM), to determine tissue viability. Once a stable contraction had been obtained, tissues were exposed to a range of prostanoid receptor agonists, in the absence or presence of receptor antagonists, to determine the functional role of prostanoid receptors in maintaining arterial tone.

[2] = target: T1, EP1 (Homo sapiens, UniProt P34995); details: cited from earlier work
T1 sequence (P34995 1-402): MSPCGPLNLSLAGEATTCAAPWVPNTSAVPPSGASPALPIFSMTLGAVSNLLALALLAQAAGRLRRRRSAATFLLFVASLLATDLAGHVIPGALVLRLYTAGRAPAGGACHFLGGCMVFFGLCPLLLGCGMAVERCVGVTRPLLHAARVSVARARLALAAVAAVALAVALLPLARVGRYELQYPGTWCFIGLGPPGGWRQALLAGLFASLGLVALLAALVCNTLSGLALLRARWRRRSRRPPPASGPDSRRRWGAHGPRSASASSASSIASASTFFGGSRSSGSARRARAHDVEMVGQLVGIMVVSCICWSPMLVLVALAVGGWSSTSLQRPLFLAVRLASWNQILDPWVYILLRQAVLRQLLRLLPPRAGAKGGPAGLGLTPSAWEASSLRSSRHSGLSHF

[3] = target: T2, EP4 receptors (Sus scrofa, UniProt I3LLK4); details: antagonism of PGE2-induced relaxation of piglet saphenous vein through blockade of EP4 receptors; cited from earlier work
T2 construct: providing a natural source of the receptors, such as piglet saphenous vein; host or cells: piglet saphenous vein rings (tissue, endogenous receptor)
T2 sequence (I3LLK4 1-489): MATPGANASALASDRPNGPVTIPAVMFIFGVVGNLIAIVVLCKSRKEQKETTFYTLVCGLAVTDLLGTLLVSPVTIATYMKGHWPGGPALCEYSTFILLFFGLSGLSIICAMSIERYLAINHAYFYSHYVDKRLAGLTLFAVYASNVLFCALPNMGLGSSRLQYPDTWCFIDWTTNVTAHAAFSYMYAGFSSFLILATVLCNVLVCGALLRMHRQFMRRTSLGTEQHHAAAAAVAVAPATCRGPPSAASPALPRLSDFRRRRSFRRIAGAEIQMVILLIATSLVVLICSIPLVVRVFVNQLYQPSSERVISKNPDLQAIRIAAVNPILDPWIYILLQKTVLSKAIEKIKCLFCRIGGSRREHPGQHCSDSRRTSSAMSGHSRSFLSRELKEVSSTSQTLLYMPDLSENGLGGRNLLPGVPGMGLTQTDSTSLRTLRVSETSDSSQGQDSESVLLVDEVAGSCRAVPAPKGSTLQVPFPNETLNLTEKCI

[4] = target: T3, EP3 (Homo sapiens, UniProt P43115); details: cited from earlier work
T3 sequence (P43115 1-390): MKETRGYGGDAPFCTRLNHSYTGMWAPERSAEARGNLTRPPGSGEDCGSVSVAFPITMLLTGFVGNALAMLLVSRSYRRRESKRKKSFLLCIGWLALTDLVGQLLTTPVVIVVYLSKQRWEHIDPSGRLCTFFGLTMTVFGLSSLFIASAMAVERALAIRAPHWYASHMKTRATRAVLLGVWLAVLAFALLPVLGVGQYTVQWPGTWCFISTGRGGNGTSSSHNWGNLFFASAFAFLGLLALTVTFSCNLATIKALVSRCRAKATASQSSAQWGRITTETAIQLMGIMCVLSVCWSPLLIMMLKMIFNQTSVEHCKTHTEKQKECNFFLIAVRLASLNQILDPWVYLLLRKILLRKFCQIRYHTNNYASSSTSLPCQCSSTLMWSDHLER

[5] = target: EP2 (Homo sapiens, UniProt P43116); details: cited from earlier work
EP2, sequence (P43116 whole entry): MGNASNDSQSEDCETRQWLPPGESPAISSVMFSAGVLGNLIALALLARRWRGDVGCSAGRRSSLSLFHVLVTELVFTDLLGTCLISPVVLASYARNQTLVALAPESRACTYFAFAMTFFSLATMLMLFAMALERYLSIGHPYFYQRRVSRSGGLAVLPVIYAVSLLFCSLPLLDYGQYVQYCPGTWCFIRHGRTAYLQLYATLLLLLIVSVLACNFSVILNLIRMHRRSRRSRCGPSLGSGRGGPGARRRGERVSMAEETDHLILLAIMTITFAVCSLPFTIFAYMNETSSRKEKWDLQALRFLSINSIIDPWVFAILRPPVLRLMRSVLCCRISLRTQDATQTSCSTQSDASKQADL

[6] = system: coronary artery; experiment: Effect of PGE2 on pre-contracted coronary artery rings; format: cell-based, human; details: for relaxation of coronary artery: tone induced with phenylephrine (1-10µM) or endothelin-1, n=3 donors, cicaprost 0.1-1µM
Experimental: (§2) Rings (2-4mm internal diameter) were prepared from sections of pulmonary or coronary artery (n=3 each). They were mounted in organ baths under isometric conditions, in gassed Krebs solution (containing indomethacin) at 37°C, and 1-1.5g initial tone.
(§3) After at least 60min equilibration, tone was induced with U-46619 (10-100nM) in pulmonary artery or either phenylephrine (1-10µM) or endothelin-1 (-7M) in coronary artery.

[7] = system: pulmonary artery; experiment: Effect of PGE2 on pre-contracted pulmonary artery rings; format: cell-based, human; details: tone induced with U-46619 (10-100nM), n=3 donors; cicaprost 0.1-1µM
Experimental: as §2, §3

[8] = target: T4, EP4 receptor (Homo sapiens, UniProt P35408); experiment: Antagonism of PGE2-mediated relaxation of phenylephrine pre-contracted middle cerebral artery rings; format: cell-based; details: 10 mM AH23848, 45 mins preincubation, P=0.004, 2 tailed T-Test
T4 construct: Intact rings of this cerebral artery, 2-3mm in length, were set up under isometric conditions; from tissue; host or cells: human middle cerebral artery rings (one donor)
T4 sequence (P35408 whole entry): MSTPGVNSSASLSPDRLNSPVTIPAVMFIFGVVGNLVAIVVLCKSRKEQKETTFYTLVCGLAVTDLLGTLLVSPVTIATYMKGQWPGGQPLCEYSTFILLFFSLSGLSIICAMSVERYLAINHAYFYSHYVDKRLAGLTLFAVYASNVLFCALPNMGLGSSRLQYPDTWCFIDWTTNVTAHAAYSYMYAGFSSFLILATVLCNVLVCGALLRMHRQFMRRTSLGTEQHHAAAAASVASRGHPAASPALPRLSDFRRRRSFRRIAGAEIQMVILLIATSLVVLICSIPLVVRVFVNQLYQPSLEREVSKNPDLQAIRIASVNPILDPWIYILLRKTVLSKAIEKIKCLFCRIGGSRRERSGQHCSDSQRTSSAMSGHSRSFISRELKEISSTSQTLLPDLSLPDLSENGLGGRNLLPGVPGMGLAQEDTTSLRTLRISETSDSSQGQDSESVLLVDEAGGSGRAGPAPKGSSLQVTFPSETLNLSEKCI
Experimental: as §1
To test the effect of the EP4 receptor antagonist AH23848, cerebral rings were preincubated for 45 mins with 10 mM AH23848.

For `CCCCC[C@H](O)/C=C/[C@@H]1[C@@H](C/C=C\CCCC(=O)O)[C@@H](O)C[C@H]1O` [PGF2α], the “effect on human cerebral artery rings contracted with phenylephrine” value (“effect … with phenylephrine” below) [1] was “without effect”.

For `O=C(O)CCC/C=C\C[C@H]1[C@@H](OCc2ccc(-c3ccccc3)cc2)CC(=O)[C@@H]1N1CCOCC1` [AH22921], the “effect on EP receptor subtype EP1” value [2] is listed as “no effect”, the pA2 [3] is listed as 5.3 and the “effect on EP receptor subtype EP3” value [4] is listed as “no effect”. The “effect on EP receptor subtype EP2” value [5] was “no effect”.

For `CC#CCC(C)[C@H](O)/C=C/[C@@H]1[C@H]2C/C(=C/CCCC(=O)O)C[C@H]2C[C@H]1O` (some centres unmarked) [Iloprost], the “effect … with phenylephrine” value [1] was “induced relaxation”.

For `CCCCC[C@H](O)/C=C/[C@H]1[C@H](O)CC(=O)[C@@H]1C/C=C\CCCC(=O)O` [PGE2, prostaglandin E2], the “contraction of coronary artery” value ([6]; pre-contracted coronary artery, likely due to activation of EP3 receptors) was “A small contraction”, the “relaxation of coronary artery” value [6] was “did not cause relaxation” and the “relaxation of pulmonary artery” value [7] was “did not cause relaxation”. The “relaxation of cerebral artery rings pre-contracted with 5-HT” value ([1]; 5-HT (300nM and 1µM), Figure 2B, 2C) was “maximal or near maximal relaxation”, the “relaxation of cerebral artery rings pre-contracted with U46619” value ([1]; U46619 (100nM), Figure 2A) was “maximal or near maximal relaxation” and the “concentration at which maximum relaxation occurs” value ([1]; cerebral blood vessel pre-contracted with phenylephrine, Figure 1) was “below 10^-6 M”. For the same molecule, the “effect on larger vessels” value ([1]; human cerebral artery, internal diameter > 1mm) was “concentration-related contraction” and the “effect on smaller vessels” value ([1]; pre-contracted human cerebral blood vessels, internal diameter < 1mm) was “potent concentration-related relaxation”.

In the case of `O=C(O)CCC=CCCC1C(OCc2ccc(-c3ccccc3)cc2)CC(=O)C1N1CCOCC1` (centres unmarked) [AH23848], the “effect on EP receptor subtype EP1” value [2] is listed as “no effect”, the “shift in the PGE2-mediated relaxation” value [8] is listed as “significant rightward shift” and the pA2 [3] is listed as 5.4. The “effect on EP receptor subtype EP3” value [4] was “no effect” and the “effect on EP receptor subtype EP2” value [5] was “no effect”.

For `CCCCC[C@H](O)/C=C/[C@H]1C(=O)C[C@H](O)[C@@H]1C/C=C\CCCC(=O)O` [PGD2], the “effect … with phenylephrine” value [1] was “without effect”.

With `CCC#CC[C@H](C)[C@H](O)C#C[C@@H]1[C@H]2C/C(=C/COCC(=O)O)C[C@H]2C[C@H]1O` [cicaprost] the “relaxation of coronary artery” value [6] was “induced a relaxation in all preparations”, the “relaxation of pulmonary artery” value [7] was “induced a relaxation in all preparations” and the “effect … with phenylephrine” value [1] was “induced relaxation”.
